Results as given in PubChem BioAssay (NCI).
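Protocol summary: plate cells (96-well), add compound at 5 concentrations, incubate 48 h, interpolate endpoints linearly. TGI is the concentration that stops growth completely.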

Assays:
Experiment in all cases: inhibition of tumour cell growth, NCI panel, 48 h
COLO 205 colon = system: COLO 205 colon
HCT-116 colon = system: HCT-116 colon
HCT-15 colon = system: HCT-15 colon
HL-60(TB) leukemia = system: HL-60(TB) leukemia
HOP-62 NSCLC = system: HOP-62 NSCLC
HT29 colon = system: HT29 colon
NCI-H460 lung = system: NCI-H460 lung
SF-539 CNS = system: SF-539 CNS
SK-MEL-28 melanoma = system: SK-MEL-28 melanoma
UACC-257 melanoma = system: UACC-257 melanoma
MDA-MB-435 = system: MDA-MB-435
PC-3 prostate = system: PC-3 prostate
HS 578T breast = system: HS 578T breast

Row | SMILES | TGI (COLO 205 colon) [µM] | TGI (HCT-116 colon) [µM] | TGI (HCT-15 colon) [µM] | TGI (HL-60(TB) leukemia) [µM] | TGI (HOP-62 NSCLC) [µM] | TGI (HT29 colon) [µM] | TGI (NCI-H460 lung) [µM] | TGI (SF-539 CNS) [µM] | TGI (SK-MEL-28 melanoma) [µM] | TGI (UACC-257 melanoma) [µM] | TGI (MDA-MB-435) [µM] | TGI (PC-3 prostate) [µM] | TGI (HS 578T breast) [µM]
1 | CCOP1(=O)C=C(C)C(Cl)=C(C)C1 (stereo not drawn) | 24.4 | 41.4 | 73.7 | 53.9 | > 100 | 79.6 | > 100 | 59.5 | 56.7 | 88.7 | – | – | –
2 | CC12CCC(=O)N1c1ccc([N+](=O)[O-])cc1N2 (stereo not drawn) | > 100 | > 100 | > 100 | > 100 | > 100 | > 100 | – | > 100 | > 100 | > 100 | – | – | –
3 | CC1(C)CC(=O)C(/C(=N/NC(=S)NN)C(=O)Nc2nc3ccc([N+](=O)[O-])cc3s2)C(=O)C1 | > 100 | > 100 | > 100 | > 100 | > 100 | > 100 | > 100 | > 100 | > 100 | > 100 | – | – | –
4 | O=C(/C=C/c1ccccc1)Oc1ccc(C(=O)/C=C/c2ccc(Cl)cc2)cc1 | > 100 | > 100 | – | > 100 | > 100 | > 100 | > 100 | > 100 | > 100 | > 100 | > 100 | > 100 | –
5 | COc1cc(O)c2c(=O)c(O)c(-c3ccc(O)c(OC)c3)oc2c1 | > 86 | > 100 | > 100 | > 23 | – | > 100 | > 100 | > 100 | – | > 100 | – | > 100 | –
6 | O=CNCNCCO | – | > 100 | > 100 | 72.8 | > 100 | > 100 | > 100 | – | > 100 | – | – | – | > 100
7 | C/C(=C\CBr)CCC(Br)C(C)(C)Cl (stereo not drawn) | > 100 | > 100 | > 100 | – | > 100 | > 100 | > 100 | > 100 | > 100 | > 100 | – | – | –
8 | CN(C)C(=NCc1ccccc1)NC#N | > 100 | > 100 | > 100 | – | > 100 | > 100 | > 100 | > 100 | > 100 | > 100 | – | – | –
9 | NS(=O)(=O)c1nnc(NS(=O)(=O)C(F)(F)F)s1 | > 100 | > 100 | > 100 | > 100 | > 100 | > 100 | > 100 | > 100 | > 100 | – | > 100 | > 100 | –
10 | C/C=C/C#CC#C/C=C/C=C/C(O)CCO (stereo not drawn) | > 23.1 | > 23.1 | > 23.1 | > 23.1 | > 23.1 | > 23.1 | > 23.1 | > 23.1 | > 23.1 | > 23.1 | – | – | –
11 | O=C(CCC1C(=O)NC(=S)NC1=O)c1ccc2ccccc2c1 | > 100 | > 100 | > 100 | > 100 | > 100 | > 100 | > 100 | > 100 | > 100 | > 100 | – | – | –
12 | COC(=O)[C@@]1(C(C)CC(=O)O)CCCCC1=O (stereo partly drawn) | > 100 | > 100 | > 100 | > 100 | > 100 | > 100 | > 100 | > 100 | > 100 | > 100 | – | – | –
13 | NC1CC(=O)c2c1sc(Cl)c2Cl (stereo not drawn) | > 100 | > 100 | > 100 | > 100 | > 100 | > 100 | > 100 | > 100 | > 100 | > 100 | > 100 | > 100 | –
14 | [O-]c1c2cc(-[n+]3c(-c4ccccc4)cc(-c4ccccc4)cc3-c3ccccc3)cc1COCCOCCOCCOCCOC2 | 33.5 | > 100 | > 100 | > 100 | > 100 | > 100 | – | > 100 | 46.7 | 82.5 | – | – | –
15 | NNC(=O)c1c(-c2cccnc2)cnc2ccccc12 | > 100 | > 100 | > 100 | > 100 | > 100 | > 100 | > 100 | > 100 | > 100 | > 100 | – | > 100 | –
16 | CC(=O)C1=CN=C2C(=O)N(c3ccccc3)N(C)C12C (stereo not drawn) | > 100 | > 100 | > 100 | > 100 | – | – | – | > 100 | – | > 100 | > 100 | > 100 | –
17 | O=[N+]([O-])c1cccc2nc3ccccc3c(NCCCNc3c4ccccc4nc4cccc([N+](=O)[O-])c34)c12 | < 0.01 | < 0.01 | – | 0.328 | 0.0844 | < 0.01 | – | 0.149 | 0.181 | 0.329 | 0.141 | 0.143 | –
18 | CCN(CC)c1ccc2c(c1)Oc1ccc(N(CC)CC)cc1C21Oc2ccccc2-c2c1c1ccccc1n2CC (stereo not drawn) | > 100 | > 100 | > 100 | 11 | – | > 100 | – | – | > 100 | > 100 | – | – | –
